Test results: US11834698B2, “Process for determining enzyme activity in a cell by activity-based reporter gene technology (ABRGT)” (INDIAN INSTITUTE OF SCIENCE EDUCATION AND RESEARCH, priority 2018, dated 2023)
“And” between values parts separate entries of the source, which are not always exact repeats. Identical values can stand only once.

How the values were obtained:
caspase-3 GFPspark [1] = biological target: T1, caspase-3 GFPspark (Homo sapiens, UniProt P42574); assay: AbRGT FRET imaging / acceptor photobleaching, caspase-3 GFPspark in HeLa cells; format: cell-based; parameters: host or cells: HeLa; conditions: STS 1 μM 10 h, probe 1 μM
T1 sequence (P42574 29-175 limits assumed): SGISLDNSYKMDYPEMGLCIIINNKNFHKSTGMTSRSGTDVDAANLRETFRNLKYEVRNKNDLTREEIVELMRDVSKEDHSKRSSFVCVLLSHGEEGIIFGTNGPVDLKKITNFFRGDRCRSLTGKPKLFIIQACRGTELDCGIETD
T1 sequence (P42574 176-277 limits assumed): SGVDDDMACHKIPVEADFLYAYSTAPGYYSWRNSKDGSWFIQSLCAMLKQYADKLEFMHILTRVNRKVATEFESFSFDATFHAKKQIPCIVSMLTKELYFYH

[2] = biological target: T2, recombinant human caspase-3 His tagged enzyme (rcaspase-3) (Homo sapiens, UniProt P42574); assay: In-gel fluorescence labelling of purified rcaspase-3 by fABP; format: binding
T2 construct: The purified rcaspase-3 was confirmed with the two peaks obtained at 12939 and 16598 Da; His tag; made in house
T2 sequence (P42574 29-175 limits assumed): T1 sequence (P42574 29-175 limits assumed)
T2 sequence (P42574 176-277 limits assumed): T1 sequence (P42574 176-277 limits assumed)
Method: FIG. 4 depicts (a) labelling of purified rcaspase-3 (2 μM) by probe 1 at a concentration of 100, 500 and 2000 nM. (b) integrated band intensity values. (c) The specificity of probe 1 (1 μM) to label active enzyme (500 nM); (lane 1: active rcaspase-3 in the presence of probe 1, lane 2: thermally denatured rcaspase-3 in the presence of probe 1.
To establish AbRGT, the specific activation of caspase-3 GFPspark was monitored, in the apoptosis signalling pathway, using fABP, Rhodamine-VAD-fluoromethyl ketone (Rh-VAD-FMK) probe (probe 1) (Micale et al., JACS, 2004) [FIG. 2(a)] in MCF-7 cells. Here, rhodamine is the fluorescent tag, VAD is the peptide recognition sequence for caspases and FMK is the reactive warhead for targeting pan-caspases. Before monitoring the specific caspase-3 activation in the native cellular environment, the active-site labelling of probe 1 to the caspase-3 enzyme in in vitro conditions was first validated. The recombinant human caspase-3 His tagged enzyme (rcaspase-3) was expressed and purified using Ni-NTA column chromatography (Stennicke et al., Methods, 1999). […] The labelled enzyme samples were then separated on a 12% SDS-PAGE gel and were visualized using an in-gel fluorescence scanner. […]

caspase-3 = biological target: T3, caspase-3 (Homo sapiens, UniProt P42574); conditions: previously shown; cited from earlier work
T3 sequence (P42574 29-175 limits assumed): T1 sequence (P42574 29-175 limits assumed)
T3 sequence (P42574 176-277 limits assumed): T1 sequence (P42574 176-277 limits assumed)

[3] = test system: enhanced green fluorescent protein (EGFP); assay: EGFP control for random GFP-rhodamine interaction in MCF-7 cells; format: cell-based; conditions: MCF-7, EGFP plasmid, STS 1 μM 4 h, labelled with probe 1
Method: FIG. 2 depicts (a) a schematic representation of AbRGT in determining the specific activation of caspase-3 GFPspark tagged enzyme by FRET effect utilizing Rh-VAD-FMK (probe 1). (b) The fluorescence signal was collected in GFP, FRET and Rhodamine (Rh) channels. MCF-7 cells transfected with caspase-3 GFPspark treated with (i) 1 μM STS for 4 h or (ii) 1 μg/ml TRAIL for 5 h and then labelled with probe 1. (iii) Un-transfected MCF-7 cells were treated with 1 μM STS for 4 h and then labelled with the probe 1. MCF-7 cells transfected with enhanced green fluorescent protein (EGFP) plasmid treated (iv) with 1 μM STS or (v) without STS for 4 h and then labelled with probe 1, scale bar, 10 a.u. […] Images for GFP and rhodamine fluorescence signals were collected in GFP and FRET channels pre- and post-bleaching of rhodamine signals. (d) Quantification of change in GFP fluorescence intensity after rhodamine photo-bleaching in both unbleached control region and rhodamine bleached region, region of interest (ROI), area under the white square. […]
To rule out that the obtained FRET signal in [FIG. 2b (i)] is not because of random physical interaction between GFPspark and rhodamine dye, MCF-7 cells were transfected with a plasmid encoding for enhanced green fluorescent protein (EGFP). […] The calculated FRET efficiency for (n=15 cells) is 35±1%. […] The calculated FRET efficiency was 35% [FIG. 7(b)]. […]

caspase-3 GFPspark [4] = biological target: T1, caspase-3 GFPspark; assay: AbRGT FRET imaging / acceptor photobleaching, caspase-3 GFPspark in HEK-293 cells; format: cell-based; parameters: host or cells: HEK-293; conditions: HEK-293, STS 1 μM 10 h, probe 1 μM

Which results are given for “Rhodamine-VAD-fluoromethyl ketone [probe 1]”?
calculated FRET efficiency (caspase-3 GFPspark [1]): 32±2%; rise in GFP intensity in the ROI (caspase-3 GFPspark [1]; n=15 cells): 52±5 a.u.; fluorescence signal after thermal denaturation of rcaspase-3 before labelling ([2]; probe 1 μM, enzyme 500 nM): completely abolished; concentration at which probe effectively labelled rcaspase-3 ([2]; rcaspase-3 2 μM, probe 100, 500, 2000 nM, SDS-PAGE in-gel fluorescence): ≤ 100 nM; affinity for caspase-3 (caspase-3): moderate affinity; selectivity for caspase-3 (caspase-3): low selectivity; fluorescence signal in FRET channel, EGFP transfected cells [3]: no fluorescence signal was observed; calculated FRET efficiency (caspase-3 GFPspark [4]): 32.5±2% and 33±2%; rise in GFP intensity in the ROI (caspase-3 GFPspark [4]): 72 a.u.
